Laboratory results taken from ChEMBL document CHEMBL2321874, “Small-molecular, non-peptide, non-ATP-competitive polo-like kinase 1 (Plk1) inhibitors with a terphenyl skeleton” (Bioorg Med Chem, 2013).
Converted amounts (≈) assume the structure as drawn.

Assays:
[1] = Solubility of the compound; assay type: physicochemical
[2] = target: Serine/threonine-protein kinase PLK1 (Homo sapiens) (UniProt P53350); experiment: Inhibition of human recombinant N-terminal GST-tagged Plk1 at 250 uM
Chain of Serine/threonine-protein kinase PLK1 (Homo sapiens) (P53350 whole entry): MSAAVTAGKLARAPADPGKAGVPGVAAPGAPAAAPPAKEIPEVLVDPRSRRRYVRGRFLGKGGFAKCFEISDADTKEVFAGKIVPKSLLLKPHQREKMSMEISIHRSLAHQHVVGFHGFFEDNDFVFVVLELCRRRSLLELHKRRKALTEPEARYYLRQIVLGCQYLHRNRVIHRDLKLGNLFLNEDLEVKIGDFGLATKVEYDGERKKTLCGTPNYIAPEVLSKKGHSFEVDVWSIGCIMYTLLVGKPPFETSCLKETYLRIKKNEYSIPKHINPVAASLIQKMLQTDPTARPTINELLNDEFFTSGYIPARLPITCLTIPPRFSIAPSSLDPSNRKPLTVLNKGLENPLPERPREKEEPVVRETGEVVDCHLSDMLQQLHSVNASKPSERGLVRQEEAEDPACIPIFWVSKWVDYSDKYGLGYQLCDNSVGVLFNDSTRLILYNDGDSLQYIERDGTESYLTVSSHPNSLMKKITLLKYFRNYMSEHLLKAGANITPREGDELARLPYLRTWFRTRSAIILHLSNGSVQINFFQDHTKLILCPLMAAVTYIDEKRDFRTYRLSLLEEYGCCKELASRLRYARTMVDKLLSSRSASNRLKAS

solubility [1] [µM] | inhibition [2] [%] | Compound
100 (≈ 35.4 µg/mL) |  | Cc1cc(-c2ccc(C#N)cc2)c(OCCO)c(-c2ccc(C#N)cc2)c1
 | 0 | CNC(=O)Cc1ccc(-c2cc(C)cc(-c3ccc(CC(=O)NC)cc3)c2OCCO)cc1
